From patent US20230365556A1, “N-ACYL AMINO ACID COMPOUNDS AND METHODS OF USE” (Pliant Therapeutics, Inc., priority 2016, published 2023) come the findings set out here.

Molecules are shown by their SMILES. Bounds are passed on as bounds.

The target of the first assay is recombinant human integrin αvβ1 (Homo sapiens (Human), UniProt P05556+P06756). The assay can be described thus: Solid phase integrin αvβ1 binding assay (fibronectin). The following applies: recombinant human integrin αvβ1 coated plate, recombinant fibronectin 2 ug/ml, 2 hours at 25° C., read-out: αvβ1 Inhibition IC50 (nM)-range. How it is done: Example B2—Solid Phase Integrin αvβ1 Binding Assay
Sequence of recombinant human integrin αvβ1 (P06756 31-889): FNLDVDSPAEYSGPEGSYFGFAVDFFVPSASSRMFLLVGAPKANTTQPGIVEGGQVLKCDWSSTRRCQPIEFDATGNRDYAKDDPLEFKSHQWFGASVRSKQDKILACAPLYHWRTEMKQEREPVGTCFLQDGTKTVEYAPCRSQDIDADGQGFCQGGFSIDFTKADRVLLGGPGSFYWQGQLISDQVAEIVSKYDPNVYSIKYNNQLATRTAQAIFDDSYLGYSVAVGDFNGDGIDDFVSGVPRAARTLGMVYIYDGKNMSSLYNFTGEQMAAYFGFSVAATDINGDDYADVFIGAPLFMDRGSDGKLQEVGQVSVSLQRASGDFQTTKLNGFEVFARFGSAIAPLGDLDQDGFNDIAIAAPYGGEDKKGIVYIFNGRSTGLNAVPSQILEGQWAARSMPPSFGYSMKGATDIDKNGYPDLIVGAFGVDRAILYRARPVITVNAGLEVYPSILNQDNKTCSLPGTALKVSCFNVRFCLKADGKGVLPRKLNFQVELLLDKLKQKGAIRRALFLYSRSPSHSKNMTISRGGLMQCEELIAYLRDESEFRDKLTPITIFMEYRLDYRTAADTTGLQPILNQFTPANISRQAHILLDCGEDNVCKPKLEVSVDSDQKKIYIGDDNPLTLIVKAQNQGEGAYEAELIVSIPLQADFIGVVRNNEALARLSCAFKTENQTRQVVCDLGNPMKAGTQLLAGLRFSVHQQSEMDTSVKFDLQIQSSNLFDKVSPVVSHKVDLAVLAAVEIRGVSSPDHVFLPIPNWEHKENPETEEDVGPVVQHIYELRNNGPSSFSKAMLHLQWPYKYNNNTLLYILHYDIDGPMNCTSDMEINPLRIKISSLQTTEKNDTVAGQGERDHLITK
Sequence of recombinant human integrin αvβ1 (P06756 891-992 partner): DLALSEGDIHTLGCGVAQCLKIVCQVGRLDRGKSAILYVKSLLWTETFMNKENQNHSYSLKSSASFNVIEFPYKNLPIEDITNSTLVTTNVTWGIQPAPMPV
Sequence of recombinant human integrin αvβ1 (P05556 21-728): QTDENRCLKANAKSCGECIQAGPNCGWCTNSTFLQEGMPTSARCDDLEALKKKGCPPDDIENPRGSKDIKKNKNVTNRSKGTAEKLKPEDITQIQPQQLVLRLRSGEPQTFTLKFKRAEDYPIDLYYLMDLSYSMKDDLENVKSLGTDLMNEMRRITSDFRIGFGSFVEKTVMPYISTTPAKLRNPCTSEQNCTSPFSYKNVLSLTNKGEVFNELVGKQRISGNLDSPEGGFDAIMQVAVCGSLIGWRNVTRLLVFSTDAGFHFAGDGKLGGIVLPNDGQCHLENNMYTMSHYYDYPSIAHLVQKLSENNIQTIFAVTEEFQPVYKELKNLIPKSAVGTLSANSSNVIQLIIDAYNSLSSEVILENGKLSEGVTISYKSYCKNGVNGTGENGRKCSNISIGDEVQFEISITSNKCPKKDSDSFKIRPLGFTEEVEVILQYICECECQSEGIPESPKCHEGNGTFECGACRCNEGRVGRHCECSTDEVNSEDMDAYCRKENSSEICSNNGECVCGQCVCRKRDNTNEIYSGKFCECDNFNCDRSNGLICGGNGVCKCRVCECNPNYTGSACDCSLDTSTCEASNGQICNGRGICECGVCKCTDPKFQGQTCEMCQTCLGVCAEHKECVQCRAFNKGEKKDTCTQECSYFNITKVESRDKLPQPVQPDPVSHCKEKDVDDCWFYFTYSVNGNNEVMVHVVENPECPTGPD
Microplates were coated with recombinant human integrin αvβ1 (2 ug/ml) in PBS (100 ul/well 4° C., overnight). The coating solution was removed, washed with PBS. Plate was blocked with 200 ul/well of Block Buffer (2% BSA in PBS) at 37° C. for 1 h. Dilutions of testing compounds and recombinant fibronectin (2 ug/ml) in binding and washing buffer (50 mM Tris-HCl, ph7.5; 0.1% BSA, 1 mM MnCl2; NaCl 150 mM; 0.02% Tween-20; 1 mM CaCl2); 1 mM MgCl2) were added. The plate was incubated for 2 hours at 25° C., washed, and incubated for 1 hour with Biotin-Anti-fibronectin. Bound antibody was detected by peroxidase-conjugated streptavidin. The IC50 values for testing compounds were calculated by a four-parameter logistic regression.
The compounds tested were compound samples prepared according to procedures described in the Synthetic Examples section, with the stereochemical purity as indicated in the Examples. The compounds tested were predominantly S-configuration at the alpha carbon of the amino acid scaffold, except for compounds 123, 124, and 125 which were predominantly R-configuration at the alpha carbon of the amino acid scaffold.
Broadly, the IC50 is the concentration that inhibits the measured activity by half. As for `O=C(NC(CN1CCC(OCCCc2ccc3c(n2)NCCC3)C1)C(=O)O)c1c(Cl)cccc1Cl` (centres unmarked) [Compound 75, 2-(2,6-dichlorobenzamido)-3-(3-(3-(5,6,7,8-tetrahydro-1,8-naphthyridin-2-yl)propoxy)pyrrolidin-1-yl)propanoic acid], the IC50 lay in the range of 250 to 1000 nM.
The same measure, in the same setting: as for `Cn1ncc2ccc(C(=O)NC(CCCCCCCc3ccc4c(n3)NCCC4)C(=O)O)cc21` (centres unmarked) [Compound 81, 2-(1-methyl-1H-indazole-6-carboxamido)-9-(5,6,7,8-tetrahydro-1,8-naphthyridin-2-yl)nonanoic acid], the figure is under 50 nM.
On to `O=C(NC(CCCCCCCc1ccc2c(n1)NCCC2)C(=O)O)c1ccc(Cl)cc1` (centres unmarked) [Compound 87], for which the IC50 was under 50 nM.
For the molecule `O=C(NC(CCCCCCCc1ccc2c(n1)NCCC2)C(=O)O)c1ccc(F)cc1` (centres unmarked) [Compound 88], the IC50 was under 50 nM.
On to `COc1ccc(C(=O)NC(CCCCCCCc2ccc3c(n2)NCCC3)C(=O)O)cc1` (centres unmarked) [Compound 89], for which the IC50 was under 50 nM.
For `N#Cc1ccc(C(=O)NC(CCCCCCCc2ccc3c(n2)NCCC3)C(=O)O)cc1` (centres unmarked) [Compound 90], the 50% inhibitory concentration (IC50) was under 50 nM.
Turning to `O=C(NC(CCCCCCCc1ccc2c(n1)NCCC2)C(=O)O)c1cccc(Cl)c1` (centres unmarked) [Compound 91], the half-maximal inhibitory concentration (IC50) was under 50 nM.
Same read-out and setting: for `O=C(NC(CCCCCCCc1ccc2c(n1)NCCC2)C(=O)O)c1cccc(F)c1` (centres unmarked) [Compound 92] the value was under 50 nM; for `COc1cccc(C(=O)NC(CCCCCCCc2ccc3c(n2)NCCC3)C(=O)O)c1` (centres unmarked) [Compound 93], under 50 nM.
On the same count and under the same terms, for `N#Cc1cccc(C(=O)NC(CCCCCCCc2ccc3c(n2)NCCC3)C(=O)O)c1` (centres unmarked) [Compound 94] the value was under 50 nM.
As for `O=C(NC(CCCCCCCc1ccc2c(n1)NCCC2)C(=O)O)c1ccccc1F` (centres unmarked) [Compound 95], the IC50 was under 50 nM.
As for `O=C(NC(CCCCCCCc1ccc2c(n1)NCCC2)C(=O)O)c1ccccc1Cl` (centres unmarked) [Compound 96], the IC50 is under 50 nM.
Take `O=C(O)C(CCCCCCCc1ccc2c(n1)NCCC2)NC(=O)N1CCn2c(nnc2C(F)(F)F)C1` (centres unmarked) [Compound 97]: the concentration for half-maximal inhibition (IC50) is under 50 nM.
`CC(C)Oc1ccc(C(=O)N[C@@H](CCCCCCCc2ccc3c(n2)NCCC3)C(=O)O)c(Cl)c1` [Compound 117]: the IC50 is under 50 nM.
For the molecule `O=C(N[C@@H](CCCCCCCc1ccc2c(n1)NCCC2)C(=O)O)c1cc(OC(F)(F)F)ccc1Cl` [Compound 118], the concentration for half-maximal inhibition (IC50) was under 50 nM.
On to `Cc1cc(C)n(-c2cccc(C(=O)N[C@@H](CCCCCCCc3ccc4c(n3)NCCC4)C(=O)O)c2)n1` [Compound 119], for which the IC50 was under 50 nM.
`O=C(N[C@@H](CCCCCCCc1ccc2c(n1)NCCC2)C(=O)O)c1cccc(F)c1Cl` [Compound 121]: the IC50 was under 50 nM.
Still for that read-out and setting: as for `O=C(N[C@@H](CCCCCCCc1ccc2c(n1)NCCC2)C(=O)O)c1cc(F)cc(C(F)(F)F)c1` [Compound 122], the figure is under 50 nM; as for `Cn1cc(-c2cccc(C(=O)N[C@H](CCCCCCCc3ccc4c(n3)NCCC4)C(=O)O)c2)cn1` [Compound 123], over 1000 nM; as for `O=C(N[C@H](CCCCCCCc1ccc2c(n1)NCCC2)C(=O)O)c1cccc(-c2cncs2)c1` [Compound 124], over 1000 nM.
On to `O=C(N[C@H](CCCCCCCc1ccc2c(n1)NCCC2)C(=O)O)c1cc(F)cc(C(F)(F)F)c1` [Compound 125], for which the IC50 was over 1000 nM.
The same measure, in the same setting: for `O=C(N[C@@H](CCCCCCCc1ccc2c(n1)NCCC2)C(=O)O)c1cccc(-c2cncs2)c1` [Compound 126] the value was 50 to 250 nM.

The target of the next assay is αvβ1 integrin (αvβ1 expressing CHO cells) (Homo sapiens (Human), UniProt P05556+P06756). The assay can be described thus: Cell adhesion assay: inhibition of αvβ1 expressing CHO cells attaching to TGFβ1LAP. The format is cell-based. The settings on record: 1 h at 37° C., crystal violet absorbance 595 nm, read-out: αvβ1 Inhibition IC50 (nM)-range. Summed up: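 Plates coated with 2 ug/ml TGFβ1LAP and blocked with 2% BSA; cells (1.0×10^6 cells/ml in DMEM) incubated with compound 1 hour at 37° C. Non-adherent cells removed by centrifugation; adherent cells stained with crystal violet, absorbance 595 nm, IC50 by four-parameter non-linear regression.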
Sequence of αvβ1 integrin (αvβ1 expressing CHO cells) (P06756 31-889): as the sequence (P06756 31-889) above
Sequence of αvβ1 integrin (αvβ1 expressing CHO cells) (P06756 891-1048 partner): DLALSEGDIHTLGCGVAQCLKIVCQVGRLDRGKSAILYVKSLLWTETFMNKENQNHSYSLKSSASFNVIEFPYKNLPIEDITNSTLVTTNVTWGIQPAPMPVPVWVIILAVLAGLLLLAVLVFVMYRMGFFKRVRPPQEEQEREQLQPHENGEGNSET
Sequence of αvβ1 integrin (αvβ1 expressing CHO cells) (P05556 21-798): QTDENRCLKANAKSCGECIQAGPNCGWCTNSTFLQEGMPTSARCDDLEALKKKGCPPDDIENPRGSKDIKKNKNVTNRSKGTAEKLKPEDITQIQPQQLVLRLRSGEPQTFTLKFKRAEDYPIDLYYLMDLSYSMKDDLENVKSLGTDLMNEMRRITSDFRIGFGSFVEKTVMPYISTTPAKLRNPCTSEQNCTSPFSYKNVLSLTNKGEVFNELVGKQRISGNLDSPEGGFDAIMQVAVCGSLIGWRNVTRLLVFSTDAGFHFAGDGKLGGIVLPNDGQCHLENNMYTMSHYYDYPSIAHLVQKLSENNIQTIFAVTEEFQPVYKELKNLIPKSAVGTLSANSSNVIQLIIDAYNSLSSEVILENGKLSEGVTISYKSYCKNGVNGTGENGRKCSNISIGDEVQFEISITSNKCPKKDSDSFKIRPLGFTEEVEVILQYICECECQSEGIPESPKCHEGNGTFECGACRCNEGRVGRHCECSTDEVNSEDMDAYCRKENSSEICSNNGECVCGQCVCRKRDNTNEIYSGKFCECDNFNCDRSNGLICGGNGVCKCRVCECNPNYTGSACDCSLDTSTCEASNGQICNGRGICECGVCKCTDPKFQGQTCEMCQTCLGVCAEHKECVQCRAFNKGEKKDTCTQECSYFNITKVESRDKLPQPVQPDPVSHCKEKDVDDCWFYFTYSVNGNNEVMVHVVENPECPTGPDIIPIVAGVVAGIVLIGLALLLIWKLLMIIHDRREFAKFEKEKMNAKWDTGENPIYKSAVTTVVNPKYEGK
With `Cn1ncc2ccc(C(=O)NC(CCCCCCCc3ccc4c(n3)NCCC4)C(=O)O)cc21` (centres unmarked) [Compound 81, 2-(1-methyl-1H-indazole-6-carboxamido)-9-(5,6,7,8-tetrahydro-1,8-naphthyridin-2-yl)nonanoic acid], the concentration for half-maximal inhibition (IC50) fell in the range of 50 to 250 nM.
